Experimental data taken from PubChem BioAssay (NCI).
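Assay format: 96-well plates, 48-hour exposure. TGI is the concentration that stops growth completely.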

How the values were obtained:
Experiment in all cases: NCI anticancer screen, dose series, 48 h
[1] = tested on: U251 CNS
[2] = tested on: NCI-H23 lung
[3] = tested on: HCT-116 colon
[4] = tested on: UACC-62 melanoma
[5] = tested on: SK-MEL-28 melanoma
[6] = tested on: DU-145 prostate
[7] = tested on: BT-549 breast
[8] = tested on: 786-0 renal
[9] = tested on: EKVX NSCLC
[10] = tested on: SF-295 CNS
[11] = tested on: SN12C renal
[12] = tested on: MDA-N
[13] = tested on: SW-620 colon
[14] = tested on: NCI/ADR-RES ovarian
[15] = tested on: COLO 205 colon
[16] = tested on: HOP-92 NSCLC
[17] = tested on: OVCAR-5 ovarian
[18] = tested on: UO-31 renal
[19] = tested on: HOP-62 NSCLC
[20] = tested on: SNB-19 CNS
[21] = tested on: A549 NSCLC
[22] = tested on: SK-MEL-2 melanoma
[23] = tested on: MOLT-4 leukemia
[24] = tested on: UACC-257 melanoma
[25] = tested on: HCC-2998 colon
[26] = tested on: PC-3 prostate
[27] = tested on: SR leukemia
[28] = tested on: SF-539 CNS
[29] = tested on: OVCAR-4 ovarian
[30] = tested on: ACHN renal
[31] = tested on: TK-10 renal
[32] = tested on: CCRF-CEM leukemia
[33] = tested on: OVCAR-8 ovarian
[34] = tested on: SK-MEL-5 melanoma
[35] = tested on: K-562 leukemia
[36] = tested on: RPMI-8226 leukemia
[37] = tested on: MCF7 breast
[38] = tested on: HL-60(TB) leukemia
[39] = tested on: HT29 colon
[40] = tested on: MALME-3M melanoma
[41] = tested on: NCI-H522 lung
[42] = tested on: OVCAR-3 ovarian
[43] = tested on: RXF 393 renal
[44] = tested on: SNB-75 CNS
[45] = tested on: SK-OV-3 ovarian
[46] = tested on: M14 melanoma
[47] = tested on: NCI-H226 lung
[48] = tested on: KM12 colon
[49] = tested on: NCI-H460 lung
[50] = tested on: IGROV1 ovarian
[51] = tested on: CAKI-1 renal
[52] = tested on: SF-268 CNS
[53] = tested on: HCT-15 colon
[54] = tested on: MDA-MB-231 breast
[55] = tested on: MDA-MB-435
[56] = tested on: LOX IMVI melanoma
[57] = tested on: A498 renal
[58] = tested on: HS 578T breast

`N#C/C(=C\c1cc(F)cc(F)c1)c1ccccn1` was tested, and the TGI [1] was 40 µM, the TGI [2] was 72.8 µM and the TGI [3] was over 100 µM. It also gave a TGI [4] of over 100 µM, a TGI [5] of over 100 µM and a TGI [6] of over 100 µM. For the same molecule, the TGI [7] was 97.1 µM, the TGI [8] was over 10 µM and the TGI [9] was 44.3 µM. It also gave a TGI [10] of 60.2 µM, a TGI [11] of 62.9 µM and a TGI [12] of over 100 µM. For the same molecule, the TGI [13] was over 10 µM, the TGI [14] was 66.9 µM and the TGI [15] was over 10 µM. It also gave a TGI [16] of 48.1 µM, a TGI [17] of over 100 µM and a TGI [18] of over 100 µM. It also gave a TGI [19] of over 10 µM, a TGI [20] of over 100 µM and a TGI [21] of over 100 µM. For the same molecule, the TGI [22] was over 100 µM, the TGI [23] was 45.8 µM and the TGI [24] was over 100 µM. The TGI [25] was 60 µM, the TGI [26] was over 100 µM and the TGI [27] was 88.6 µM. For the same molecule, the TGI [28] was 43.5 µM, the TGI [29] was over 100 µM and the TGI [30] was over 100 µM. It also gave a TGI [31] of over 100 µM, a TGI [32] of over 100 µM and a TGI [33] of 45.4 µM. For the same molecule, the TGI [34] was over 100 µM, the TGI [35] was over 100 µM and the TGI [36] was over 100 µM. The TGI [37] was over 100 µM, the TGI [38] was over 10 µM and the TGI [39] was over 100 µM. The TGI [40] was 73.9 µM, the TGI [41] was 74.8 µM and the TGI [42] was over 100 µM. For the same molecule, the TGI [43] was over 100 µM, the TGI [44] was over 100 µM and the TGI [45] was over 100 µM. The TGI [46] was 88.6 µM, the TGI [47] was 56.9 µM and the TGI [48] was 68 µM. For the same molecule, the TGI [49] was 74 µM, the TGI [50] was over 100 µM and the TGI [51] was over 100 µM. The TGI [52] was 52.8 µM and the TGI [53] was 34.2 µM.

`O=C(N=Nc1c(O)[nH]c2c(Cl)cc(Cl)cc12)c1ccccc1O` gave a TGI [1] of 21 µM, a TGI [2] of 33.1 µM and a TGI [3] of 27.3 µM. For the same molecule, the TGI [4] was 24.8 µM, the TGI [5] was 30 µM and the TGI [54] was 30.1 µM. For the same molecule, the TGI [7] was 27.7 µM, the TGI [8] was 26.3 µM and the TGI [9] was 26.3 µM. The TGI [10] was 28.4 µM, the TGI [11] was 30.5 µM and the TGI [12] was 28.1 µM. For the same molecule, the TGI [13] was 34.5 µM, the TGI [14] was 26.3 µM and the TGI [15] was 38.5 µM. It also gave a TGI [16] of 28.6 µM, a TGI [17] of 32.4 µM and a TGI [18] of 24.3 µM. It also gave a TGI [19] of 29.2 µM, a TGI [20] of 27.8 µM and a TGI [21] of 27.4 µM. It also gave a TGI [22] of 26.1 µM, a TGI [23] of 31 µM and a TGI [24] of 33.2 µM. It also gave a TGI [25] of 31.1 µM, a TGI [26] of 29 µM and a TGI [27] of 23.7 µM. For the same molecule, the TGI [28] was 29.6 µM, the TGI [29] was 26.9 µM and the TGI [30] was 25.8 µM. The TGI [31] was 29.3 µM, the TGI [55] was 26.9 µM and the TGI [32] was 46.9 µM. The TGI [33] was 25.2 µM, the TGI [34] was 28.7 µM and the TGI [37] was 41 µM. For the same molecule, the TGI [38] was 43.4 µM, the TGI [39] was 34.8 µM and the TGI [40] was 27.1 µM. It also gave a TGI [56] of 28 µM, a TGI [42] of 25.1 µM and a TGI [43] of 25.3 µM. The TGI [44] was 22.8 µM, the TGI [45] was 30.6 µM and the TGI [46] was 30.3 µM. The TGI [47] was 29.4 µM, the TGI [57] was 30.8 µM and the TGI [48] was 29.5 µM. For the same molecule, the TGI [49] was 27.6 µM, the TGI [50] was 26.9 µM and the TGI [51] was 31.1 µM. For the same molecule, the TGI [58] was 29 µM and the TGI [53] was 29.2 µM.
